The text below walks through data of patent US20220041665A1, “POLYNUCLEOTIDE AND USES THEREOF” (Helsingin yliopisto, priority 2019, published 2022).

What all share (type): cell-based, human
The test system of one experiment is seipin-mEGFP. Briefly: FACS screen of auxin perceptive proteins and degrons (mean GFP intensity) in A431 cell pools. The conditions noted are these: cells expressing AtAFB2 and seipin-mEGFP with degron insertion; 0 h, 1 h, 16 h IAA. How it is done:
To search for an improved AID system to solve the issue, a pipeline was first established in human A431 cells to screen AID components (FIG. 2A). Various auxin perceptive proteins and degrons were selected for screening. Several TIR1 and AFB2 proteins from different plant species were tested, as well as degrons derived from AtIAA17 (SEQ ID NO: 3), these including amino acid (aa.) 65-132 (miniAID), aa. 62-109, aa. 71-114. All these degrons were included in the screen. […] These high affinity fragments were tested, assuming higher affinity might translate into more efficient inducible degradation. Degrons with KR dipeptide deletions were tested to see if they would have an effect on enhancing IAA binding affinity, IAA-inducible depletion or as part of a nuclear localization signal. […]
For FACS analysis, cells were seeded at 1:5 (for A431) or 1:3 (for A549) into 6-well plate in medium without selection on day 0. […] Cells were gated with SSC, FSC and trigger pulse width for singlets and 100 000 cells were analyzed for each sample. GFP was excited with 488 nm laser and detected with 530/40 detector; mCherry was excited with 561 nm lasers and detected with 615/20 detector. Data was analyzed with BD FACS Sortware. Background subtracted mean fluorescence intensity was used for analysis.

The subject of experiment [1] is A549 cells with tagged EGFR. Briefly: EGF uptake in A549 cells with tagged EGFR. On the procedure:
A549 cells were seeded at 0.4×10^5 cells per 4-well for 3 days. Medium was changed to fresh medium with or without 0.5 mM IAA for 1 h. Cells were washed twice with ice-cold serum free medium with 1% BSA and 0.2 ml of 2 μg/ml Alexa Fluor™ 647 EGF complex (ThermoFisher, E35351) in serum free medium with 1% BSA was added. Cells were further incubated at 37° C. for 20 min before harvesting with trypsin. Samples were kept on ice before FACS analysis. Alexa Fluor™ 647 was excited with 640 nm laser and detected with 720/40 detector, analysing 20 000 cells per sample. Negative control samples were cells incubated in medium without EGF complex. Background subtracted mean fluorescence intensity was used for analysis.

The test system of experiment [2] is A431 cells with tagged DHC1. The experiment in a line: Analysis of cell division in A431 cells with tagged DHC1. How it is done:
Cells were plated on μ-slide 8-well ibiTreat dishes at 0.1×10^5 cells per well 2 days before the experiment. On the experiment day, cells were loaded with 2 μM CellTracker™ Red CMTPX (Thermo, CAT #C34552) in complete medium for 15-30 min at 37° C. Medium was then changed to FluroBrite containing 10% FBS and incubated at 37° C. for 1-2 h before imaging to equilibrate the labelling. Cells were imaged with Nikon Eclipse Ti-E microscope equipped with 20× air objective, Nikon Perfect Focus System 3, Hamamatsu Flash 4.0 V2 scientific CMOS and Okolab stage top incubator system. Before recording, 6 fields for each of the 8 wells were selected with Celllracker™ Red fluorescence. IAA was then added at a final 0.5 mM concentration to IAA-treated cells, mixed well with pipetting, and time lapse imaging started immediately recording every 30 min for 16 h. Mitotic rounding cells were counted manually in the videos from 0.5 h to 6 h. Mitotic rounding cells without cell division were followed till 13 h.

Another experiment has as its system seipin. Briefly: Depletion of endogenous seipin tagged with mAID-mEGFP in A431 cells expressing OsTIR1. The conditions noted are these: cells expressing OsTIR1, no IAA. From the text:
Initially seipin, a conserved transmembrane protein in the endoplasmic reticulum (ER) involved in lipid droplet (LD) biogenesis, was targeted for degradation. To rapidly deplete seipin from human A431 cells, an AID system, composed of TIR1 derived from Oryza sativa (OsTIR1) and mAID degron of 65 amino acids corresponding to AAs 68-132 of AtIAA17 (SEQ ID NO: 3), referred herein to as miniAID, was first employed. To this end, the endogenous seipin was homozygously tagged with mAID-mEGFP.

Where [3] appears, read: control cells without auxin perceptive protein.

Chain of seipin (Q96G97+P93830 fused): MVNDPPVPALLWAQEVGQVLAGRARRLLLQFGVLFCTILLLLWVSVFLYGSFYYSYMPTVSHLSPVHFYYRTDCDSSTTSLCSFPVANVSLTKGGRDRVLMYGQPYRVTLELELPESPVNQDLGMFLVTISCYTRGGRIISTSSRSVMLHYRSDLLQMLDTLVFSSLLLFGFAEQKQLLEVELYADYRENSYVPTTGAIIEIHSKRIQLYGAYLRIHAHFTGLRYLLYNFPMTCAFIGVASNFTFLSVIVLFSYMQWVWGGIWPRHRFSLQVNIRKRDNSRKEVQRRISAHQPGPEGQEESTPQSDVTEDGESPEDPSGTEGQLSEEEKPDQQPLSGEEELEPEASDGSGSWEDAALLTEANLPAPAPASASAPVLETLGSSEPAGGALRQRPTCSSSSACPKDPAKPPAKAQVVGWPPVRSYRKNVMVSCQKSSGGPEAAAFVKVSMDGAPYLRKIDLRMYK

Consider “aa.82-101: minimal truncated AtIAA7 degron, aa. 82-101 of SEQ ID NO: 1 (QVVGWPPVRNYRKNMMTQQK; listed as Arabidopsis thaliana)”, for which, in the experiment on seipin-mEGFP, the “auxin-inducible degradation of truncated AtIAA7 degron” value is “similarly to miniIAA7”.

As for `O=C(O)Cc1c[nH]c2ccccc12` [IAA, indole-3-acetic acid], the “reduction of EGF uptake” value in experiment [1] (EGFR-AtAFB2 cells, 1 h IAA treatment (0.5 mM)) is on record as 75%. Further, the “effect of IAA per se on EGF uptake” value in experiment [1] (setting [3]) is “did not affect”. Moreover, the “fraction of mitotic rounding cells that completed cell division” value in experiment [2] (DHC1-AtAFB2 cells, after IAA addition for 30 min (0.5 mM)) is listed as 0%. Besides, in experiment [2] (setting [3]), the “effect of IAA per se on cell division” value was “did not affect”.

For “miniAID: mAID degron of 65 amino acids corresponding to AAs 68-132 of AtIAA17 (SEQ ID NO: 3)”, the “degradation of tagged seipin without IAA addition” value with seipin was “severely degraded”.
